In ChEMBL document CHEMBL1201862, “PubChem BioAssay data set” (2004):
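Growth conditions: 96-well plates. Treatment: test compound, 48 hours, 5 concentrations. Analysis: linear interpolation between bracketing concentrations; unreached endpoints set to highest concentration. At the GI50, growth is halved.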 Active and inactive are the calls of the source. Cut-off read from the data, not from the text of the source: active = GI50 up to about 1.1 µM and inactive = higher.

Experiments:
Experiment in all cases: inhibition of tumour cell growth, NCI panel, 48 h
[1] = tested on: SK-OV-3
[2] = tested on: KM12
[3] = tested on: NCI-H522
[4] = tested on: CAKI-1
[5] = tested on: SK-MEL-2
[6] = tested on: IGROV-1
[7] = tested on: UACC-257
[8] = tested on: A549
[9] = tested on: NCI-H23
[10] = tested on: OVCAR-5
[11] = tested on: M14
[12] = tested on: HOP-62
[13] = tested on: SF-268
[14] = tested on: SW-620
[15] = tested on: SF-295
[16] = tested on: CCRF-CEM
[17] = tested on: RXF 393
[18] = tested on: HL-60
[19] = tested on: SK-MEL-28

Q: What does the source list for `COc1ccc2c(c1)-c1oc3ccccc3c(=O)c1CO2`?
A: GI50 [1]: 35.4 µM (inactive); GI50 [2]: 39.5 µM (inactive); GI50 [3]: 32.1 µM (inactive); GI50 [4]: 20.8 µM (inactive); GI50 [5]: 26.3 µM (inactive); GI50 [6]: 25.7 µM (inactive); GI50 [7]: 31.8 µM (inactive); GI50 [8]: 43 µM (inactive); GI50 [9]: 89.5 µM (inactive); GI50 [10]: > 100 µM (inactive); GI50 [11]: 57.7 µM (inactive); GI50 [12]: 57.4 µM (inactive); GI50 [13]: 25 µM (inactive); GI50 [14]: 28.2 µM (inactive); GI50 [15]: 69 µM (inactive); GI50 [16]: 20.5 µM (inactive)

Q: With `COC(=O)C1CCC(=O)C(Sc2ccccc2)C1` (stereo unspecified) as the compound, how does the GI50 [1] read?
A: > 100 µM (inactive)

Q: What about the GI50 [2] of the same compound?
A: > 100 µM (inactive)

Q: And the GI50 [3]?
A: 52.7 µM (inactive)

Q: What about the GI50 [4] of the same compound?
A: > 100 µM (inactive)

Q: What about the GI50 [6] of the same compound?
A: 51.6 µM (inactive)

Q: And the GI50 [7]?
A: 83.8 µM (inactive)

Q: And the GI50 [8]?
A: > 100 µM (inactive)

Q: And the GI50 [17]?
A: > 100 µM (inactive)

Q: What about the GI50 [18] of the same compound?
A: 34 µM (inactive)

Q: What about the GI50 [9] of the same compound?
A: > 100 µM (inactive)

Q: And the GI50 [10]?
A: > 100 µM (inactive)

Q: What about the GI50 [19] of the same compound?
A: > 100 µM (inactive)

Q: What about the GI50 [11] of the same compound?
A: > 100 µM (inactive)

Q: And the GI50 [13]?
A: 59.8 µM (inactive)

Q: What about the GI50 [14] of the same compound?
A: > 100 µM (inactive)

Q: And the GI50 [15]?
A: > 100 µM (inactive)

Q: And the GI50 [16]?
A: 22.5 µM (inactive)

Q: What does the source list for `CN(c1ccc(C(=O)c2ccc(N(C)S(C)(=O)=O)cc2)cc1)S(C)(=O)=O`?
A: GI50 [1]: > 100 µM (inactive); GI50 [2]: > 100 µM (inactive); GI50 [3]: 94.2 µM (inactive); GI50 [4]: > 100 µM (inactive); GI50 [5]: > 100 µM (inactive); GI50 [7]: 48.9 µM (inactive); GI50 [8]: > 100 µM (inactive); GI50 [18]: 76.4 µM (inactive); GI50 [9]: 34.5 µM (inactive); GI50 [10]: > 100 µM (inactive); GI50 [19]: 54.6 µM (inactive); GI50 [13]: > 100 µM (inactive); GI50 [14]: > 100 µM (inactive); GI50 [15]: 78.2 µM (inactive); GI50 [16]: > 100 µM (inactive)

Q: For `c1ccc(C2N3CCCCC3[C@@H]3c4[nH]c5ccccc5c4CCN23)cc1` (stereo partly specified), which GI50 [1] is on record?
A: > 100 µM (inactive)

Q: What about the GI50 [4] of the same compound?
A: > 100 µM (inactive)

Q: What about the GI50 [5] of the same compound?
A: > 100 µM (inactive)

Q: What about the GI50 [6] of the same compound?
A: > 100 µM (inactive)

Q: What about the GI50 [7] of the same compound?
A: > 100 µM (inactive)

Q: And the GI50 [8]?
A: > 100 µM (inactive)

Q: What about the GI50 [17] of the same compound?
A: 47.3 µM (inactive)

Q: What about the GI50 [18] of the same compound?
A: 22.1 µM (inactive)

Q: What about the GI50 [9] of the same compound?
A: > 100 µM (inactive)

Q: What about the GI50 [10] of the same compound?
A: > 100 µM (inactive)

Q: What about the GI50 [19] of the same compound?
A: 28 µM (inactive)

Q: And the GI50 [11]?
A: > 100 µM (inactive)

Q: What about the GI50 [12] of the same compound?
A: > 100 µM (inactive)

Q: And the GI50 [13]?
A: > 100 µM (inactive)

Q: And the GI50 [14]?
A: 50.4 µM (inactive)

Q: And the GI50 [15]?
A: > 100 µM (inactive)

Q: What about the GI50 [16] of the same compound?
A: 28.6 µM (inactive)

Q: Which results are given for `CCCCCCCCCCCCNC(=S)OC`?
A: GI50 [1]: 16 µM (inactive); GI50 [2]: 15.4 µM (inactive); GI50 [3]: 13.2 µM (inactive); GI50 [4]: 14.8 µM (inactive); GI50 [5]: 16.8 µM (inactive); GI50 [6]: 11.5 µM (inactive); GI50 [7]: 16.7 µM (inactive); GI50 [8]: 17.5 µM (inactive); GI50 [17]: 12.8 µM (inactive); GI50 [18]: 10.5 µM (inactive); GI50 [9]: 17.8 µM (inactive); GI50 [10]: 16.3 µM (inactive); GI50 [19]: 16.9 µM (inactive); GI50 [11]: 17.3 µM (inactive); GI50 [12]: 18 µM (inactive); GI50 [13]: 16.6 µM (inactive); GI50 [14]: 16.6 µM (inactive); GI50 [15]: 19.4 µM (inactive); GI50 [16]: 10.5 µM (inactive)

Q: How did the GI50 [1] turn out when `Cc1c2c(cc3c1[nH]c1ccccc13)C(c1ccc(Cl)cc1)=NCC2` was run?
A: 2.67 µM (inactive)

Q: What about the GI50 [2] of the same compound?
A: 0.274 µM (active)

Q: And the GI50 [3]?
A: 0.288 µM (active)

Q: What about the GI50 [5] of the same compound?
A: 0.711 µM (active)

Q: And the GI50 [6]?
A: 0.944 µM (active)

Q: And the GI50 [7]?
A: 0.621 µM (active)

Q: And the GI50 [8]?
A: 0.665 µM (active)

Q: What about the GI50 [17] of the same compound?
A: 0.465 µM (active)

Q: And the GI50 [18]?
A: 0.288 µM (active)

Q: What about the GI50 [9] of the same compound?
A: 0.368 µM (active)

Q: What about the GI50 [10] of the same compound?
A: 7.78 µM (inactive)

Q: What about the GI50 [19] of the same compound?
A: 1.45 µM (inactive)

Q: And the GI50 [12]?
A: 0.738 µM (active)

Q: What about the GI50 [13] of the same compound?
A: 0.598 µM (active)

Q: And the GI50 [14]?
A: 0.356 µM (active)

Q: What about the GI50 [15] of the same compound?
A: 0.255 µM (active)

Q: And the GI50 [16]?
A: 0.433 µM (active)

Q: For `CC12C3C4C1C1C2C3C41CO` (stereo unspecified), which GI50 [1] is on record?
A: > 100 µM (inactive)

Q: What about the GI50 [2] of the same compound?
A: > 100 µM (inactive)

Q: And the GI50 [4]?
A: > 100 µM (inactive)

Q: And the GI50 [5]?
A: > 100 µM (inactive)

Q: What about the GI50 [6] of the same compound?
A: > 100 µM (inactive)

Q: And the GI50 [7]?
A: > 100 µM (inactive)

Q: What about the GI50 [8] of the same compound?
A: > 100 µM (inactive)

Q: What about the GI50 [17] of the same compound?
A: > 100 µM (inactive)

Q: What about the GI50 [18] of the same compound?
A: > 100 µM (inactive)

Q: And the GI50 [10]?
A: > 100 µM (inactive)

Q: What about the GI50 [19] of the same compound?
A: > 100 µM (inactive)

Q: And the GI50 [11]?
A: > 100 µM (inactive)

Q: And the GI50 [14]?
A: > 100 µM (inactive)

Q: What about the GI50 [15] of the same compound?
A: > 100 µM (inactive)

Q: What about the GI50 [16] of the same compound?
A: > 100 µM (inactive)

Q: How did the GI50 [1] turn out when `O=C1Oc2ccccc2C(=O)/C1=C\NC(=S)c1ccncc1` was run?
A: > 100 µM (inactive)

Q: And the GI50 [2]?
A: > 100 µM (inactive)

Q: What about the GI50 [4] of the same compound?
A: 51.3 µM (inactive)

Q: And the GI50 [5]?
A: 42.3 µM (inactive)

Q: What about the GI50 [6] of the same compound?
A: 67.1 µM (inactive)

Q: What about the GI50 [7] of the same compound?
A: > 100 µM (inactive)

Q: And the GI50 [8]?
A: > 100 µM (inactive)

Q: And the GI50 [18]?
A: 3.35 µM (inactive)

Q: What about the GI50 [9] of the same compound?
A: > 100 µM (inactive)

Q: What about the GI50 [10] of the same compound?
A: > 100 µM (inactive)

Q: And the GI50 [19]?
A: 45.9 µM (inactive)

Q: And the GI50 [11]?
A: > 100 µM (inactive)

Q: What about the GI50 [12] of the same compound?
A: 84.1 µM (inactive)

Q: And the GI50 [14]?
A: 11 µM (inactive)

Q: What about the GI50 [15] of the same compound?
A: > 100 µM (inactive)

Q: Which results are given for `COc1ccc(C(=O)c2c3cc(OC)c(OC)c(OC)c3cc[n+]2C)cc1`?
A: GI50 [1]: 38.4 µM (inactive); GI50 [2]: 30.4 µM (inactive); GI50 [3]: 19.2 µM (inactive); GI50 [5]: 21.1 µM (inactive); GI50 [6]: 34.8 µM (inactive); GI50 [8]: 17.8 µM (inactive); GI50 [17]: 39.6 µM (inactive); GI50 [9]: 23.7 µM (inactive); GI50 [10]: > 100 µM (inactive); GI50 [19]: 28.5 µM (inactive); GI50 [11]: 29.6 µM (inactive); GI50 [12]: 28.2 µM (inactive); GI50 [13]: 37.9 µM (inactive); GI50 [14]: 34.4 µM (inactive); GI50 [16]: 20.9 µM (inactive)
